In US4287206A, “Halogen derivatives of 8-hydroxycarboxylic acids; the processes for their preparation and medicaments in which they are present” (priority 1978, dated 1981):
Read-outs that look alike come from different tables or passages of the source.

Assays:
[1] = Determination of the acute toxicity to mice (BEHRENS and KARBER); conditions: mouse, in vivo
Description: All the experiments reported below were carried out on male rats having a weight of between 170 and 220 g (Wistar AF strain) and male mice having a weight of between 18 and 23 g (Swiss NMRI strain), unless otherwise stated in the following text.
Determination of the acute toxicity to mice
Method used: BEHRENS and KARBER

mice [2] = assay: Interaction with barbital sodium (sleep induced by barbital sodium in mice); assay type: in vivo; conditions: barbital sodium 180 mg.kg^-1 i.p.
Description: Interaction with barbital sodium
At time 0, the mice receive, by intraperitoneal or oral administration, distilled water or the medicament according to the invention. After 30 minutes, they receive barbital sodium (180 mg.kg^-1) by intraperitoneal administration.

mice [3] = assay: Anti-apomorphine activity in mice (hypothermia caused by apomorphine); assay type: in vivo
mice [4] = assay: Motor activity in mice (activity meters with photoelectric cells); assay type: in vivo
Description: The motor activity was determined with the aid of activity meters having photoelectric cells (Boissier and Simon, Arch. int. Pharmacodyn. 1965, 158, 212-221). A minimum of 10 animals was always used per batch.
The mice are placed in the activity meter just after the oral or intraperitoneal administration of the product acccording to the invention, obtained in accordance with Example I. The motor activity is measured as from the introduction into the activity meter up to the 60th minute. The counters are read after 30 minutes, then reset to 0 and read every 10 minutes for 30 minutes.

Q: What does the source list for `CC1CC(c2ccc(Cl)cc2)C(c2ccccc2)C(=O)O1` (stereo not drawn) [Example I, trans-4-(4'-chlorophenyl)-6-methyl-3-phenyl-3,4,5,6-tetrahydropyrone-2]?
A: LD50 ([1]; ip, intraperitoneal, read-out: LD50 (intraperitoneal administration)): 520 mg/kg; LD50 ([1]; oral, read-out: LD50 (oral administration)): 1050 mg/kg; % of mice which have slept (mice [2]; 2 mg/kg intraperitoneal): 100%; Time in minutes for induction of sleep (mice [2]; 2 mg/kg intraperitoneal): 27 min; Time in minutes of sleep (mice [2]; 2 mg/kg intraperitoneal): 67 ± 16 min; % of mice which have slept (mice [2]; 2 mg/kg oral): 83%; Time in minutes for induction of sleep (mice [2]; 2 mg/kg oral): 25 min; Time in minutes of sleep (mice [2]; 2 mg/kg oral): 47 ± 15 min; % of mice which have slept (mice [2]; 4 mg/kg intraperitoneal): 83%; Time in minutes for induction of sleep (mice [2]; 4 mg/kg intraperitoneal): 22 min; Time in minutes of sleep (mice [2]; 4 mg/kg intraperitoneal): 37 ± 13 min; % of mice which have slept (mice [2]; 4 mg/kg oral): 25%; Time in minutes for induction of sleep (mice [2]; 4 mg/kg oral): 33 min; Time in minutes of sleep (mice [2]; 4 mg/kg oral): 56 min; % of mice which have slept (mice [2]; 8 mg/kg intraperitoneal): 83%; Time in minutes for induction of sleep (mice [2]; 8 mg/kg intraperitoneal): 30 min; Time in minutes of sleep (mice [2]; 8 mg/kg intraperitoneal): 25 ± 4 min; % of mice which have slept (mice [2]; 8 mg/kg oral): 42%; Time in minutes for induction of sleep (mice [2]; 8 mg/kg oral): 32 min; Time in minutes of sleep (mice [2]; 8 mg/kg oral): 43 min; % of mice which have slept (mice [2]; 16 mg/kg intraperitoneal): 33%; Time in minutes for induction of sleep (mice [2]; 16 mg/kg intraperitoneal): 38 min; Time in minutes of sleep (mice [2]; 16 mg/kg intraperitoneal): 14 min; % of mice which have slept (mice [2]; 16 mg/kg oral): 0%; Time in minutes for induction of sleep (mice [2]; 16 mg/kg oral): 0 min; Time in minutes of sleep (mice [2]; 16 mg/kg oral): 0 min; % of mice which have slept (mice [2]; 32 mg/kg intraperitoneal): 0%; Time in minutes for induction of sleep (mice [2]; 32 mg/kg intraperitoneal): 0 min; Time in minutes of sleep (mice [2]; 32 mg/kg intraperitoneal): 0 min; % of mice which have slept (mice [2]; 32 mg/kg oral): 00%; Time in minutes for induction of sleep (mice [2]; 32 mg/kg oral): 0 min; Time in minutes of sleep (mice [2]; 32 mg/kg oral): 0 min; Rectal temperatures, results in % inhibition of the hypothermia (mice [3]; 0.5 mg/kg intraperitoneal, apomorphine 1 mg.kg^-1 subcutaneously): 7%; Rectal temperatures, results in % inhibition of the hypothermia (mice [3]; 0.5 mg/kg intraperitoneal, apomorphine 16 mg.kg^-1 subcutaneously): -5%; Rectal temperatures, results in % inhibition of the hypothermia (mice [3]; 2 mg/kg intraperitoneal, apomorphine 1 mg.kg^-1 subcutaneously): 3%; Rectal temperatures, results in % inhibition of the hypothermia (mice [3]; 2 mg/kg intraperitoneal, apomorphine 16 mg.kg^-1 subcutaneously): 45%; Rectal temperatures, results in % inhibition of the hypothermia (mice [3]; 4 mg/kg intraperitoneal, apomorphine 1 mg.kg^-1 subcutaneously): -13%; Rectal temperatures, results in % inhibition of the hypothermia (mice [3]; 4 mg/kg intraperitoneal, apomorphine 16 mg.kg^-1 subcutaneously): 39%; Rectal temperatures, results in % inhibition of the hypothermia (mice [3]; 4 mg/kg oral, apomorphine 1 mg.kg^-1 subcutaneously): 0%; Rectal temperatures, results in % inhibition of the hypothermia (mice [3]; 4 mg/kg oral, apomorphine 16 mg.kg^-1 subcutaneously): 31%; Rectal temperatures, results in % inhibition of the hypothermia (mice [3]; 8 mg/kg oral, apomorphine 1 mg.kg^-1 subcutaneously): -2%; Rectal temperatures, results in % inhibition of the hypothermia (mice [3]; 8 mg/kg oral, apomorphine 16 mg.kg^-1 subcutaneously): 40%; Rectal temperatures, results in % inhibition of the hypothermia (mice [3]; 16 mg/kg intraperitoneal, apomorphine 1 mg.kg^-1 subcutaneously): 10%; Rectal temperatures, results in % inhibition of the hypothermia (mice [3]; 16 mg/kg intraperitoneal, apomorphine 16 mg.kg^-1 subcutaneously): 51%; Rectal temperatures, results in % inhibition of the hypothermia (mice [3]; 16 mg/kg oral, apomorphine 1 mg.kg^-1 subcutaneously): 0.5%; Rectal temperatures, results in % inhibition of the hypothermia (mice [3]; 16 mg/kg oral, apomorphine 16 mg.kg^-1 subcutaneously): 42%; Rectal temperatures, results in % inhibition of the hypothermia (mice [3]; 32 mg/kg oral, apomorphine 1 mg.kg^-1 subcutaneously): 45%; Rectal temperatures, results in % inhibition of the hypothermia (mice [3]; 32 mg/kg oral, apomorphine 16 mg.kg^-1 subcutaneously): 77%; Rectal temperatures, results in % inhibition of the hypothermia (mice [3]; 64 mg/kg oral, apomorphine 1 mg.kg^-1 subcutaneously): 51%; Rectal temperatures, results in % inhibition of the hypothermia (mice [3]; 64 mg/kg oral, apomorphine 16 mg.kg^-1 subcutaneously): 86%; Rectal temperatures, results in % inhibition of the hypothermia (mice [3]; 128 mg/kg oral, apomorphine 1 mg.kg^-1 subcutaneously): 68%; Rectal temperatures, results in % inhibition of the hypothermia (mice [3]; 128 mg/kg oral, apomorphine 16 mg.kg^-1 subcutaneously): 81%; Rectal temperatures, results in % inhibition of the hypothermia (mice [3]; 256 mg/kg oral, apomorphine 1 mg.kg^-1 subcutaneously): 89%; Rectal temperatures, results in % inhibition of the hypothermia (mice [3]; 256 mg/kg oral, apomorphine 16 mg.kg^-1 subcutaneously): 116%; Number of rays passed through by mice (mice [4]; Table Ia, 1 mg/kg intraperitoneal, 30 + 10 min): 76; Number of rays passed through by mice (mice [4]; Table Ia, 1 mg/kg intraperitoneal, 30 + 20 min): 163; Number of rays passed through by mice (mice [4]; Table Ia, 1 mg/kg intraperitoneal, 30 + 30 min): 235; Number of rays passed through by mice (mice [4]; Table Ia, 1 mg/kg intraperitoneal, 30 min): 400; Number of rays passed through by mice (mice [4]; Table Ia, 2 mg/kg intraperitoneal, 30 + 10 min): 114; Number of rays passed through by mice (mice [4]; Table Ia, 2 mg/kg intraperitoneal, 30 + 20 min): 231; Number of rays passed through by mice (mice [4]; Table Ia, 2 mg/kg intraperitoneal, 30 + 30 min): 331; Number of rays passed through by mice (mice [4]; Table Ia, 2 mg/kg intraperitoneal, 30 min): 474; Number of rays passed through by mice (mice [4]; Table Ia, 4 mg/kg intraperitoneal, 30 + 10 min): 129; Number of rays passed through by mice (mice [4]; Table Ia, 4 mg/kg intraperitoneal, 30 + 20 min): 269; Number of rays passed through by mice (mice [4]; Table Ia, 4 mg/kg intraperitoneal, 30 + 30 min): 322; Number of rays passed through by mice (mice [4]; Table Ia, 4 mg/kg intraperitoneal, 30 min): 529; Number of rays passed through by mice (mice [4]; Table Ia, 4 mg/kg oral, 30 + 10 min): 139; Number of rays passed through by mice (mice [4]; Table Ia, 4 mg/kg oral, 30 + 20 min): 257; Number of rays passed through by mice (mice [4]; Table Ia, 4 mg/kg oral, 30 + 30 min): 386; Number of rays passed through by mice (mice [4]; Table Ia, 4 mg/kg oral, 30 min): 462; Number of rays passed through by mice (mice [4]; Table Ia, 8 mg/kg intraperitoneal, 30 + 10 min): 147; Number of rays passed through by mice (mice [4]; Table Ia, 8 mg/kg intraperitoneal, 30 + 20 min): 309; Number of rays passed through by mice (mice [4]; Table Ia, 8 mg/kg intraperitoneal, 30 + 30 min): 467; Number of rays passed through by mice (mice [4]; Table Ia, 8 mg/kg intraperitoneal, 30 min): 659; Number of rays passed through by mice (mice [4]; Table Ia, 8 mg/kg oral, 30 + 10 min): 157; Number of rays passed through by mice (mice [4]; Table Ia, 8 mg/kg oral, 30 + 20 min): 314; Number of rays passed through by mice (mice [4]; Table Ia, 8 mg/kg oral, 30 + 30 min): 461; Number of rays passed through by mice (mice [4]; Table Ia, 8 mg/kg oral, 30 min): 478; Number of rays passed through by mice (mice [4]; Table Ia, 16 mg/kg intraperitoneal, 30 + 10 min): 176; Number of rays passed through by mice (mice [4]; Table Ia, 16 mg/kg intraperitoneal, 30 + 20 min): 336; Number of rays passed through by mice (mice [4]; Table Ia, 16 mg/kg intraperitoneal, 30 + 30 min): 465; Number of rays passed through by mice (mice [4]; Table Ia, 16 mg/kg intraperitoneal, 30 min): 763; Number of rays passed through by mice (mice [4]; Table Ia, 16 mg/kg oral, 30 + 10 min): 232; Number of rays passed through by mice (mice [4]; Table Ia, 16 mg/kg oral, 30 + 20 min): 428; Number of rays passed through by mice (mice [4]; Table Ia, 16 mg/kg oral, 30 + 30 min): 636; Number of rays passed through by mice (mice [4]; Table Ia, 16 mg/kg oral, 30 min): 629; Number of rays passed through by mice (mice [4]; Table Ia, 32 mg/kg intraperitoneal, 30 + 10 min): 187; Number of rays passed through by mice (mice [4]; Table Ia, 32 mg/kg intraperitoneal, 30 + 20 min): 422; Number of rays passed through by mice (mice [4]; Table Ia, 32 mg/kg intraperitoneal, 30 + 30 min): 594; Number of rays passed through by mice (mice [4]; Table Ia, 32 mg/kg intraperitoneal, 30 min): 891; Number of rays passed through by mice (mice [4]; Table Ia, 32 mg/kg oral, 30 + 10 min): 270; Number of rays passed through by mice (mice [4]; Table Ia, 32 mg/kg oral, 30 + 20 min): 587; Number of rays passed through by mice (mice [4]; Table Ia, 32 mg/kg oral, 30 + 30 min): 869; Number of rays passed through by mice (mice [4]; Table Ia, 32 mg/kg oral, 30 min): 783; Number of rays passed through by mice (mice [4]; Table Ib, 2 mg/kg, route not given, 0 + 10 min): 119; Number of rays passed through by mice (mice [4]; Table Ib, 2 mg/kg, route not given, 30 + 20 min): 221; Number of rays passed through by mice (mice [4]; Table Ib, 2 mg/kg, route not given, 30 + 30 min): 334; Number of rays passed through by mice (mice [4]; Table Ib, 2 mg/kg, route not given, 30 min): 417; Number of rays passed through by mice (mice [4]; Table Ib, 4 mg/kg, route not given, 0 + 10 min): 129; Number of rays passed through by mice (mice [4]; Table Ib, 4 mg/kg, route not given, 30 + 20 min): 259; Number of rays passed through by mice (mice [4]; Table Ib, 4 mg/kg, route not given, 30 + 30 min): 376; Number of rays passed through by mice (mice [4]; Table Ib, 4 mg/kg, route not given, 30 min): 472; Number of rays passed through by mice (mice [4]; Table Ib, 8 mg/kg, route not given, 0 + 10 min): 141; Number of rays passed through by mice (mice [4]; Table Ib, 8 mg/kg, route not given, 30 + 20 min): 286; Number of rays passed through by mice (mice [4]; Table Ib, 8 mg/kg, route not given, 30 + 30 min): 443; Number of rays passed through by mice (mice [4]; Table Ib, 8 mg/kg, route not given, 30 min): 452; Number of rays passed through by mice (mice [4]; Table Ib, 16 mg/kg, route not given, 0 + 10 min): 172; Number of rays passed through by mice (mice [4]; Table Ib, 16 mg/kg, route not given, 30 + 20 min): 359; Number of rays passed through by mice (mice [4]; Table Ib, 16 mg/kg, route not given, 30 + 30 min): 537; Number of rays passed through by mice (mice [4]; Table Ib, 16 mg/kg, route not given, 30 min): 565; Number of rays passed through by mice (mice [4]; Table Ib, 32 mg/kg, route not given, 0 + 10 min): 184; Number of rays passed through by mice (mice [4]; Table Ib, 32 mg/kg, route not given, 30 + 20 min): 376; Number of rays passed through by mice (mice [4]; Table Ib, 32 mg/kg, route not given, 30 + 30 min): 547; Number of rays passed through by mice (mice [4]; Table Ib, 32 mg/kg, route not given, 30 min): 560
